pEC50, pIC50: −log10 of the molar value.
Tests used:
[1] = Metabolic stability in Wistar rat cerebellum assessed as intact tracer at 74 MBq, iv measured at 30 mins post administration by gamma counting; assay type: ADME, organism-based; settings: read-out: Stability
[2] = Metabolic stability in Wistar rat cerebrum assessed as intact tracer at 74 MBq, iv measured at 30 mins post administration by gamma counting; assay type: ADME, organism-based; settings: read-out: Stability
[3] = Metabolic stability in Wistar rat plasma assessed as intact tracer at 74 MBq, iv measured at 30 mins post administration by gamma counting; assay type: ADME, organism-based; settings: read-out: Stability
Rattus norvegicus = assay: Biodistribution in Wistar rat urinary system at 22 Mbq, iv measured at 60 mins post administration by gamma counting; assay type: ADME, organism-based, Urine; settings: in vivo, 1 h
Liver = assay: Biodistribution in Wistar rat liver at 22 Mbq, iv measured at 60 mins post administration by gamma counting; assay type: ADME, organism-based; settings: in vivo, 1 h
Intestine = assay: Biodistribution in Wistar rat intestine at 22 Mbq, iv measured at 60 mins post administration by gamma counting; assay type: ADME, organism-based; settings: in vivo, 1 h
Brain [4] = assay: Ratio of SUV in total brain in iv dosed Wistar at 2 mins post administration by gamma counting to SUV in total brain in iv dosed Wistar at 30 mins post administration by gamma counting; assay type: ADME, organism-based; settings: rat, in vivo
Cerebellum [5] = assay: Ratio of SUV in cerebellum in iv dosed Wistar at 2 mins post administration by gamma counting to SUV in cerebellum in iv dosed Wistar at 30 mins post administration by gamma counting; assay type: ADME, organism-based; settings: rat, in vivo
Cerebrum [6] = assay: Ratio of SUV in cerebrum in iv dosed Wistar at 2 mins post administration by gamma counting to SUV in cerebrum in iv dosed Wistar at 30 mins post administration by gamma counting; assay type: ADME, organism-based; settings: rat, in vivo
Cortex = assay: Ratio of SUV in cortex in iv dosed Wistar at 2 mins post administration by gamma counting to SUV in cortex in iv dosed Wistar at 30 mins post administration by gamma counting; assay type: ADME, organism-based; settings: rat, in vivo
Hippocampus = assay: Ratio of SUV in hippocampus in iv dosed Wistar at 2 mins post administration by gamma counting to SUV in hippocampus in iv dosed Wistar at 30 mins post administration by gamma counting; assay type: ADME, organism-based; settings: rat, in vivo
Striatum = assay: Ratio of SUV in striatum in iv dosed Wistar at 2 mins post administration by gamma counting to SUV in striatum in iv dosed Wistar at 30 mins post administration by gamma counting; assay type: ADME, organism-based; settings: rat, in vivo
Cerebellum [7] = assay: Biodistribution in Wistar rat cerebellum at 22 Mbq, iv measured at 2 mins post administration by gamma counting; assay type: ADME, organism-based; settings: in vivo
Cerebrum [8] = assay: Biodistribution in Wistar rat cerebrum at 22 Mbq, iv measured at 2 mins post administration by gamma counting; assay type: ADME, organism-based; settings: in vivo
Brain [9] = assay: Biodistribution in Wistar rat brain at 22 Mbq, iv measured at 2 mins post administration by gamma counting; assay type: ADME, organism-based; settings: in vivo
[10] = Fraction unbound in human plasma; assay type: ADME, cell-free
[11] = Fraction unbound in rat plasma; assay type: ADME, cell-free
Liver microsomes [12] = assay: Drug metabolism in rat liver microsomes assessed as M+O oxidative metabolite; assay type: ADME, Microsome
Liver microsomes [13] = assay: Drug metabolism in human liver microsomes assessed as M+O oxidative metabolite; assay type: ADME, Microsome
Liver microsomes [14] = assay: Drug metabolism in rat liver microsomes assessed as O-methylated compound derivative; assay type: ADME, Microsome
Liver microsomes [15] = assay: Drug metabolism in human liver microsomes assessed as O-methylated compound derivative; assay type: ADME, Microsome
CHO [16] = assay: Selectivity ratio for rat mGluR6 to human mGluR2 expressed in CHO cell membranes; assay type: cell-based
CHO [17] = assay: Selectivity ratio for human mGluR4 to human mGluR2 expressed in CHO cell membranes; assay type: cell-based
HEK293 [18] = assay: Selectivity ratio for human mGluR8 expressed in HEK293 cells to human mGluR2 expressed in CHO cell membranes; assay type: cell-based
HEK293 [19] = assay: Selectivity ratio for human mGluR7 expressed in HEK293 cells to human mGluR2 expressed in CHO cell membranes; assay type: cell-based
HEK293 [20] = assay: Selectivity ratio for human mGluR5 expressed in HEK293 cells to human mGluR2 expressed in CHO cell membranes; assay type: cell-based
HEK293 [21] = assay: Selectivity ratio for human mGluR3 expressed in HEK293 cells to human mGluR2 expressed in CHO cell membranes; assay type: cell-based
HEK293 [22] = assay: Selectivity ratio for human mGluR1 expressed in HEK293 cells to human mGluR2 expressed in CHO cell membranes; assay type: cell-based
[23] = target: T1, Metabotropic glutamate receptor 2 (Homo sapiens, UniProt Q14416); assay: Displacement of [3H]JNJ-40068782 from human mGLuR2 expressed in CHO cell membrane after 60 mins by liquid scintillation counting; assay type: cell membranes
Target sequence in this assay (Q14416 whole entry): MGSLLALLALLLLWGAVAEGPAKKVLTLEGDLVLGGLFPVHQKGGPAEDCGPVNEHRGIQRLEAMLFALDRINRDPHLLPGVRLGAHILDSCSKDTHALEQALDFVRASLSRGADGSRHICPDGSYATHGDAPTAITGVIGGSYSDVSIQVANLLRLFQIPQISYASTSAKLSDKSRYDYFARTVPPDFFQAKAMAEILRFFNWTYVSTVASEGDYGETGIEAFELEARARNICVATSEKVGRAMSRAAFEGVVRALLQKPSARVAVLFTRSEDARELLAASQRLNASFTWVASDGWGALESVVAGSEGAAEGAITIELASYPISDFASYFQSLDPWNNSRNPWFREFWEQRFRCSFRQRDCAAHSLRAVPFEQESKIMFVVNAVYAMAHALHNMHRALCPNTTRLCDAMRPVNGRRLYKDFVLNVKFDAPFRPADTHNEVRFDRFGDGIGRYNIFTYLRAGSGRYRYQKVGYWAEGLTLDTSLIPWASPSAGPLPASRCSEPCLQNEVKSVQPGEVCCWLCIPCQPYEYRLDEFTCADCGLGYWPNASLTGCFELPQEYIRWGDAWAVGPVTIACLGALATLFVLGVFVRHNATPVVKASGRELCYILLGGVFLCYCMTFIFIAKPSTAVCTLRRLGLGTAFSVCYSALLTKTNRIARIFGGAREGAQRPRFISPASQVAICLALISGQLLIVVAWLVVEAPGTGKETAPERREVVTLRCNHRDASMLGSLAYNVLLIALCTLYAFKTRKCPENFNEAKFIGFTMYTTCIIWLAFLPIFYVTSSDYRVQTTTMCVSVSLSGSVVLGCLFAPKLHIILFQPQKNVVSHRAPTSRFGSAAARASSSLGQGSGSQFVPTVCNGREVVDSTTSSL

[24] = target: T1, Metabotropic glutamate receptor 2; assay: Agonist activity at human mGLuR2 expressed in CHO cell membrane assessed as […] after 30 mins by scintillation counting relative to control; assay type: functional, cell membranes
Target sequence in this assay (Q14416 19-872 limits assumed): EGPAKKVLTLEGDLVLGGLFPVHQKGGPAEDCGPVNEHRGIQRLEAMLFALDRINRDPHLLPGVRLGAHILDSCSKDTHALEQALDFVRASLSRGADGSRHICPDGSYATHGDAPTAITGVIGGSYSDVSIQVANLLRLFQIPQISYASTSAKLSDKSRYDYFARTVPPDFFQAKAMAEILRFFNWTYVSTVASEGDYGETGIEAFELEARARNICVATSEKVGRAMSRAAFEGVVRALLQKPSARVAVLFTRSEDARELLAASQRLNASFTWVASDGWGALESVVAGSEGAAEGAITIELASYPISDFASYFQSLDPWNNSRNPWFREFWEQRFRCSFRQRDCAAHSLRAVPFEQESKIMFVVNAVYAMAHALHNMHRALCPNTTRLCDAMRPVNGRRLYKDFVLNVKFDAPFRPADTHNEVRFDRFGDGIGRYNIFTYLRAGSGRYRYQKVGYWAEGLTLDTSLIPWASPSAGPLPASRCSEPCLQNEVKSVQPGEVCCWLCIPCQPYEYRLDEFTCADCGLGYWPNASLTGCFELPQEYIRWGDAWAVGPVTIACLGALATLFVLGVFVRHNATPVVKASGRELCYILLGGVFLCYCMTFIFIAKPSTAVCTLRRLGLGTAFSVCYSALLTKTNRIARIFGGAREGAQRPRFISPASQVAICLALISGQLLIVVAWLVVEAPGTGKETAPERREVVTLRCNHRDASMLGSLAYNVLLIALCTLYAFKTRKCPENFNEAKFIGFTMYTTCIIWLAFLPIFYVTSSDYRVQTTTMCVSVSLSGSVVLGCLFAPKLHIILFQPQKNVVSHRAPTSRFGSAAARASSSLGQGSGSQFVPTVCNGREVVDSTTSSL

[25] = target: T1, Metabotropic glutamate receptor 2; assay: Agonist activity at human mGLuR2 expressed in CHO cell membrane assessed as […] after 30 mins by scintillation counting; assay type: functional, cell membranes
Target sequence in this assay (Q14416 whole entry): as the sequence (Q14416 whole entry) above

remaining at 0.5 h [1]	remaining at 0.5 h [2]	remaining at 0.5 h [3]	Drug uptake (Rattus norvegicus)	Drug uptake (Liver)	Drug uptake (Intestine)	Ratio (Brain [4])	Ratio (Cerebellum [5])	Ratio (Cerebrum [6])	Ratio (Cortex)	Ratio (Hippocampus)	Ratio (Striatum)	Drug uptake (Cerebellum [7])	fraction unbound [10]	fraction unbound [11]	Drug metabolism (Liver microsomes [12])	Drug metabolism (Liver microsomes [13])	Drug metabolism (Liver microsomes [14])	Drug metabolism (Liver microsomes [15])	Emax [24]	Compound	also measured
92.7%	92.4%	41%	Active	Active	Active	0.79	0.63	0.83	0.88	0.66	0.63	0.1 %ID	–	–	–	–	–	–	–	[11CH3]Oc1ccc(F)cc1C1CCN(c2ccn3c(CC4CC4)nnc3c2Cl)CC1	Drug uptake (Cerebrum [8]): 0.45 %ID; Drug uptake (Brain [9]): 0.58 %ID
95.5%	92.9%	30.8%	Active	Active	Active	0.88	0.77	0.72	0.66	0.71	0.67	0.18 %ID	–	–	–	–	–	–	–	[11CH3]Oc1cc(F)cc(F)c1C1CCN(c2ccn3c(CC4CC4)nnc3c2Cl)CC1	Drug uptake (Cerebrum [8]): 0.53 %ID; Drug uptake (Brain [9]): 0.75 %ID

The remaining lines, values behind:

Compound	remaining at 0.5 h [1]	remaining at 0.5 h [2]	remaining at 0.5 h [3]	Drug uptake (Rattus norvegicus)	Drug uptake (Liver)	Drug uptake (Intestine)	Ratio (Brain [4])	Ratio (Cerebellum [5])	Ratio (Cerebrum [6])	Ratio (Cortex)	Ratio (Hippocampus)	Ratio (Striatum)	Drug uptake (Cerebellum [7])	fraction unbound [10]	fraction unbound [11]	Drug metabolism (Liver microsomes [12])	Drug metabolism (Liver microsomes [13])	Drug metabolism (Liver microsomes [14])	Drug metabolism (Liver microsomes [15])	Emax [24]	also measured
COc1cc(F)cc(F)c1C1CCN(c2ccn3c(CC4CC4)nnc3c2Cl)CC1	–	–	–	–	–	–	–	–	–	–	–	–	–	< 0.01	< 0.01	Active	Active	Active	Active	256%	Selectivity ratio (CHO [16]): > 350; Selectivity ratio (CHO [17]): > 350; Selectivity ratio (HEK293 [18]): > 350; Selectivity ratio (HEK293 [19]): > 350; Selectivity ratio (HEK293 [20]): > 350; Selectivity ratio (HEK293 [21]): > 350; Selectivity ratio (HEK293 [22]): > 350; pIC50 [23]: 8.25
COc1c(F)cccc1C1CCN(c2ccn3c(CC(F)(F)F)nnc3c2C#N)CC1	–	–	–	–	–	–	–	–	–	–	–	–	–	0.047	0.04	Active	Active	Active	Active	306%	pEC50 ([25]; read-out: EC50): 7.51
COc1cccc(F)c1C1CCN(c2ccn3c(CC4CC4)nnc3c2Cl)CC1	–	–	–	–	–	–	–	–	–	–	–	–	–	< 0.01	< 0.01	Active	Active	Active	Active	304%	Selectivity ratio (CHO [16]): > 350; Selectivity ratio (CHO [17]): > 350; Selectivity ratio (HEK293 [18]): > 350; Selectivity ratio (HEK293 [19]): > 350; Selectivity ratio (HEK293 [20]): > 350; Selectivity ratio (HEK293 [21]): > 350; Selectivity ratio (HEK293 [22]): > 350; pIC50 [23]: 7.95
[11CH3]Oc1ccc(F)c(F)c1C1CCN(c2ccn3c(CC4CC4)nnc3c2Cl)CC1	96.4%	93.1%	45.5%	Active	Active	Active	0.93	0.95	0.84	0.84	1.19	0.99	0.15 %ID	–	–	–	–	–	–	–	Drug uptake (Cerebrum [8]): 0.46 %ID; Drug uptake (Brain [9]): 0.64 %ID
COc1ccc(F)cc1C1CCN(c2ccn3c(CC(F)(F)F)nnc3c2Cl)CC1	–	–	–	–	–	–	–	–	–	–	–	–	–	< 0.01	< 0.01	Active	Active	Active	Active	340%	–
COc1c(F)ccc(F)c1C1CCN(c2ccn3c(CC4CC4)nnc3c2C(F)(F)F)CC1	–	–	–	–	–	–	–	–	–	–	–	–	–	< 0.01	< 0.01	Active	Active	Active	Active	421%	Selectivity ratio (CHO [16]): > 350; Selectivity ratio (CHO [17]): > 350; Selectivity ratio (HEK293 [18]): > 350; Selectivity ratio (HEK293 [19]): > 350; Selectivity ratio (HEK293 [20]): > 350; Selectivity ratio (HEK293 [21]): > 350; Selectivity ratio (HEK293 [22]): > 350
N#Cc1c(N2CCC(c3ccccc3)CC2)ccn2c(CC(F)(F)F)nnc12	–	–	–	–	–	–	–	–	–	–	–	–	–	–	–	–	–	–	–	–	EC50 ([25]; read-out: pEC50 (converted)): 56.2 nM
